≈ marks a conversion by molar mass, not a printed value. Calls of active or inactive are those of the source. The rule behind the calls is not given here.
Experiments:
Duck hepatitis B virus [1] = assay: Antiviral activity against Duck hepatitis B virus infected in pekin duck primary hepatocytes assessed as inhibition of viral replication at 10 ug/mL; format: functional; conditions: Hepatocyte, in Anas platyrhynchos
Hepatitis C virus [2] = assay: Antiviral activity against Hepatitis C virus subtype 1a infected in human HuH7 cells after 2 days by q-PCR analysis; format: functional, organism-based, Hepacivirus hominis; conditions: Huh-7, 48 h
Hepatitis C virus [3] = assay: Ratio of ribavirin EC50 to compound EC50 for Hepatitis C virus subtype 1a; format: functional, Hepacivirus hominis
[4] = Cytotoxicity against human HuH7 cells after 2 days by XTT assay; format: cell-based, Huh-7
Hepatitis B virus [5] = assay: Antiviral activity against Hepatitis B virus infected in human HepG2(2.2.15) cells assessed as inhibition of viral replication; format: functional, organism-based
Hepatitis B virus [6] = assay: Antiviral activity against Hepatitis B virus infected in human HepG2(2.2.15) cells assessed as inhibition of viral replication at 10 ug/mL; format: functional
Hepatitis C virus [7] = assay: Potentiation of ribavirin antiviral activity against Hepatitis C virus subtype 1a infected in human HuH7 cells at 5 ug/mL after 2 days by q-PCR analysis; format: functional, organism-based; conditions: Hepacivirus hominis, Huh-7
Hepatitis C virus [8] = assay: Antiviral activity against Hepatitis C virus subtype 1a infected in human HuH7 cells at 10 ug/mL after 2 days by q-PCR analysis; format: functional, Hepacivirus hominis; conditions: Huh-7, 48 h
Duck hepatitis B virus [9] = assay: Antiviral activity against Duck hepatitis B virus infected in pekin duck primary hepatocytes assessed as inhibition of viral replication; format: functional, organism-based; conditions: Hepatocyte
Hepatitis C virus [10] = assay: Antiviral activity against Hepatitis C virus subtype 1a infected in human HuH7 cells at 5 ug/mL after 2 days by q-PCR analysis; format: functional, Hepacivirus hominis; conditions: Huh-7, 48 h
Hepatitis C virus [11] = assay: Antiviral activity against Hepatitis C virus subtype 1a infected in human HuH7 cells at 20 ug/mL after 2 days by q-PCR analysis; format: functional, Hepacivirus hominis; conditions: Huh-7, 48 h
Hepatitis C virus [12] = assay: Antiviral activity against Hepatitis C virus subtype 1a infected in human HuH7 cells at 20 to 50 ug/mL after 2 days by q-PCR analysis; format: functional, Hepacivirus hominis, Huh-7
Hepatitis B virus [13] = assay: Antiviral activity against Hepatitis B virus infected in human HepG2(2.2.15) cells assessed as inhibition of viral replication at 0.5 to 1 ug/mL; format: functional
Duck hepatitis B virus [14] = assay: Antiviral activity against Duck hepatitis B virus infected in pekin duck primary hepatocytes assessed as inhibition of viral replication at 0.5 to 1 ug/mL; format: functional, Hepatocyte

SMILES	inhibition at 10 µg/mL (Duck hepatitis B virus [1]) [%]	EC50 (Hepatitis C virus [2]) [µg/mL]	Ratio EC50 (Hepatitis C virus [3])	CC50 at 48 h [4] [µg/mL]	EC50 (Hepatitis B virus [5]) [µg/mL]	inhibition at 10 µg/mL (Hepatitis B virus [6]) [%]	Activity (Hepatitis C virus [7])	inhibition at 10 µg/mL (Hepatitis C virus [8]) [%]	EC50 (Duck hepatitis B virus [9]) [µg/mL]	inhibition at 5 µg/mL (Hepatitis C virus [10]) [%]	inhibition at 20 µg/mL (Hepatitis C virus [11]) [%]	inhibition (INH) (Hepatitis C virus [12]) [%]	inhibition (INH) (Hepatitis B virus [13]) [%]	inhibition (INH) (Duck hepatitis B virus [14]) [%]
COC(=O)[C@@H]1CC[C@H](n2ccc(N)nc2=O)O1	90	10 (≈ 41.8 µM)	>2	> 250	5 (≈ 20.9 µM)	63	Active	50	0.5 (≈ 2.09 µM)	38	–	–	–	–
CC(=O)O[C@H]1C[C@H](n2cc(F)c(=O)[nH]c2=O)O[C@@H]1C(=O)O	0	–	–	> 250	–	0	–	–	–	–	0	–	–	–
N=c1ccn([C@H]2CC[C@@H](C(=O)O)O2)c(=O)[nH]1	80	–	–	> 250	5 (≈ 22.2 µM)	60	–	–	0.5 (≈ 2.22 µM)	–	0	–	–	–
[N-]=[N+]=N[C@H]1C[C@H](n2ccc(=O)[nH]c2=O)O[C@@H]1C(=O)O	62	> 20	–	> 250	10 (≈ 37.4 µM)	50	–	–	5 (≈ 18.7 µM)	–	40	–	–	–
Cc1cn([C@H]2CC=C(C(=O)O)O2)c(=O)[nH]c1=O	65	20 (≈ 84 µM)	–	> 250	5 (≈ 21 µM)	61	–	–	2.5 (≈ 10.5 µM)	–	50	–	–	–
Cc1cn([C@H]2C=C[C@@H](C(=O)O)O2)c(=O)[nH]c1=O	63	–	–	> 250	5 (≈ 21 µM)	58	–	–	2.5 (≈ 10.5 µM)	–	0	–	–	–
O=C(O)[C@@H]1CC[C@H](n2ccc(=O)[nH]c2=O)O1	0	–	–	> 250	–	0	–	–	–	–	0	–	–	–
NC(=O)c1ncn([C@@H]2O[C@H](CO)[C@@H](O)[C@H]2O)n1 [RIBAVIRIN]	–	20 (≈ 81.9 µM)	–	–	–	–	–	35	–	–	–	50	–	–
Nc1ccn([C@@H]2CS[C@H](CO)O2)c(=O)n1 [LAMIVUDINE]	–	–	–	–	–	–	–	–	–	–	–	–	88	96
Cc1cn([C@H]2C[C@H](N=[N+]=[N-])[C@@H](C(=O)O)O2)c(=O)[nH]c1=O	55	–	–	> 250	10 (≈ 35.6 µM)	50	–	–	5 (≈ 17.8 µM)	–	30	–	–	–
